Source: ChEMBL document CHEMBL4177763, “Development of Macrocyclic Peptidomimetics Containing Constrained α,α-Dialkylated Amino Acids with Potent and Selective Activity at Human Melanocortin Receptors” (J Med Chem, 2018)
The source made the active and inactive calls. No cut-off for these calls is given here. Bridge positions count the residues as written; N and C are the ends. Square brackets hold non-standard residues; d marks the D form. Peptide text beside a SMILES is read from it. d2Nal = N[C@H](Cc1ccc2ccccc2c1)C(=O)O; Ac6c = NC1(C(=O)O)CCCCC1; Ac5c = NC1(C(=O)O)CCCC1; Ac4c = NC1(C(=O)O)CCC1; Aib = CC(C)(N)C(=O)O

Key:
[1] = target: T1, Melanocortin receptor 5 (Homo sapiens, UniProt P33032); assay: Agonist activity at human MC5R expressed in HEK293 cells assessed as induction of intracellular cAMP accumulation after 3 mins; assay type: functional, cell-based
T1 sequence (P33032 whole entry): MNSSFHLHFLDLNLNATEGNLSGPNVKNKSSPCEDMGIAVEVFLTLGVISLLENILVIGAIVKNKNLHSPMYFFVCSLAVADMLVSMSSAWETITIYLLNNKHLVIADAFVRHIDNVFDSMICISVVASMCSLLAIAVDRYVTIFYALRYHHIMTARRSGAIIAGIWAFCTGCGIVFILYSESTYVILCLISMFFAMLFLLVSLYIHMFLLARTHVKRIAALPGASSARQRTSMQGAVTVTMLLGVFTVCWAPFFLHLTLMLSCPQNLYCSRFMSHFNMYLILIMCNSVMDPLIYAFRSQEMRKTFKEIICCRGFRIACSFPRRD

[2] = target: T2, Melanocortin receptor 4 (Homo sapiens, UniProt P32245); assay: Agonist activity at human MC4R expressed in HEK293 cells assessed as induction of intracellular cAMP accumulation after 3 mins; assay type: functional, cell-based
T2 sequence (P32245 whole entry): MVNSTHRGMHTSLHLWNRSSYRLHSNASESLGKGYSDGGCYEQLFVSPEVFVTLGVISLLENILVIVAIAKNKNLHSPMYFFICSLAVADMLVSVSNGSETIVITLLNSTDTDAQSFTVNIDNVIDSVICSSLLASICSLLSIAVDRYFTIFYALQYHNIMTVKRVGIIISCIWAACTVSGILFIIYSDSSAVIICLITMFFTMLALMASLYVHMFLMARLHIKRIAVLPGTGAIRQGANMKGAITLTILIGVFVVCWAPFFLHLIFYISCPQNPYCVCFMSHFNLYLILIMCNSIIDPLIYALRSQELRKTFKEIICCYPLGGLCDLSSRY

[3] = target: T3, Melanocortin receptor 3 (Homo sapiens, UniProt P41968); assay: Agonist activity at human MC3R expressed in HEK293 cells assessed as induction of intracellular cAMP accumulation after 3 mins; assay type: functional, cell-based
T3 sequence (P41968 whole entry): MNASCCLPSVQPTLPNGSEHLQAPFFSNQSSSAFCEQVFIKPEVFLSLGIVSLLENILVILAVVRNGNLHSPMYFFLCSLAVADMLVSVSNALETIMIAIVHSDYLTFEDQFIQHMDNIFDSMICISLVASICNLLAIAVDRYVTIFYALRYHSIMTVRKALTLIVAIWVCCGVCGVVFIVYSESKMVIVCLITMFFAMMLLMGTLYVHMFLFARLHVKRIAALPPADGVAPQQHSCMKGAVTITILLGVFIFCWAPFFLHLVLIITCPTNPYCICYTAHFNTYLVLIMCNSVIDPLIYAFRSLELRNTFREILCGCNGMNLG

[4] = target: T1, Melanocortin receptor 5; assay: Displacement of [125I]-NDP-alpha-MSH from human MC5R expressed in HEK293 cells at 10 uM after 40 mins by gamma counting method; assay type: cell-based
[5] = target: T4, Melanocyte-stimulating hormone receptor (Homo sapiens, UniProt Q01726); assay: Displacement of [125I]-NDP-alpha-MSH from human MC1R expressed in HEK293 cells after 40 mins by gamma counting method; assay type: cell-based
Target sequence in this assay (Q01726 whole entry): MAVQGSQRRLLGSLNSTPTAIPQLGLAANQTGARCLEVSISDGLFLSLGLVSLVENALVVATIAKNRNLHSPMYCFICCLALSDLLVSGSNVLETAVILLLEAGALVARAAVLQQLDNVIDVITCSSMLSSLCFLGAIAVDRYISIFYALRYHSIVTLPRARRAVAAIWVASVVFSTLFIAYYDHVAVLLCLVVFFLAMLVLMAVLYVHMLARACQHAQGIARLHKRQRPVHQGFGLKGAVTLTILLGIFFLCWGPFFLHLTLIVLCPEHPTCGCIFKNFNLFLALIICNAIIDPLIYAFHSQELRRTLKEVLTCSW

[6] = target: T3, Melanocortin receptor 3; assay: Displacement of [125I]-NDP-alpha-MSH from human MC3R expressed in HEK293 cells after 40 mins by gamma counting method; assay type: cell-based
[7] = target: T1, Melanocortin receptor 5; assay: Agonist activity at human MC5R expressed in HEK293 cells assessed as induction of intracellular cAMP accumulation at 10 uM after 3 mins relative to MT-2; assay type: functional, cell-based
[8] = target: T2, Melanocortin receptor 4; assay: Displacement of [125I]-NDP-alpha-MSH from human MC4R expressed in HEK293 cells after 40 mins by gamma counting method; assay type: cell-based
[9] = target: T3, Melanocortin receptor 3; assay: Agonist activity at human MC3R expressed in HEK293 cells assessed as induction of intracellular cAMP accumulation at 10 uM after 3 mins relative to MT-2; assay type: functional, cell-based
[10] = target: T2, Melanocortin receptor 4; assay: Agonist activity at human MC4R expressed in HEK293 cells assessed as induction of intracellular cAMP accumulation at 10 uM after 3 mins relative to MT-2; assay type: functional, cell-based
[11] = target: T4, Melanocyte-stimulating hormone receptor; assay: Agonist activity at human MC1R expressed in HEK293 cells assessed as induction of intracellular cAMP accumulation at 10 uM measured after 3 mins relative to MT-2; assay type: functional, cell-based
Target sequence in this assay (Q01726 whole entry, looked up): as the sequence (Q01726 whole entry) above

[12] = target: T4, Melanocyte-stimulating hormone receptor; assay: Agonist activity at human MC1R expressed in HEK293 cells assessed as induction of intracellular cAMP accumulation measured after 3 mins; assay type: functional, cell-based
Target sequence in this assay (Q01726 whole entry): as above

[13] = target: T1, Melanocortin receptor 5; assay: Displacement of [125I]-NDP-alpha-MSH from human MC5R expressed in HEK293 cells after 40 mins by gamma counting method; assay type: cell-based
[14] = species: Homo sapiens; assay: Selectivity ratio of IC50 for human MC5R to IC50 for human MC3R
[15] = species: Homo sapiens; assay: Selectivity ratio of IC50 for human MC1R to IC50 for human MC3R

N=C(N)NCCC[C@@H]1NC(=O)[C@@H](Cc2ccc3ccccc3c2)NC(=O)[C@H](Cc2c[nH]cn2)NC(=O)C2(CCCCC2)NC(=O)CC[C@@H](C(N)=O)NC(=O)[C@H](Cc2c[nH]c3ccccc23)NC1=O ([Ac6c]H[d2Nal]RWE-NH2; lactam N-6)
EC50 ([1]; hek293): Not Active
EC50 ([2]; hek293): Not Active
EC50 ([3]; hek293): Not Active

N=C(N)NCCC[C@@H]1NC(=O)[C@@H](Cc2ccccc2)NC(=O)[C@H](Cc2c[nH]cn2)NC(=O)C2(CCCC2)NC(=O)CC[C@@H](C(N)=O)NC(=O)[C@H](Cc2c[nH]c3ccccc23)NC1=O ([Ac5c]H[dF]RWE-NH2; lactam N-6)
Activity [4]: inactive
IC50 [5]: 0.093 µM
EC50 ([1]; hek293): Not Active
IC50 [6]: 0.059 µM
EC50 ([2]; read-out: EC50): 1 µM
max activation [7]: 0%
IC50 [8]: > 1 µM
max activation [9]: 100%
max activation [10]: 100%
max activation [11]: 100%

N=C(N)NCCC[C@@H]1NC(=O)[C@@H](Cc2ccc3ccccc3c2)NC(=O)[C@H](Cc2c[nH]cn2)NC(=O)C2(CCCC2)NC(=O)CC[C@@H](C(N)=O)NC(=O)[C@H](Cc2c[nH]c3ccccc23)NC1=O ([Ac5c]H[d2Nal]RWE-NH2; lactam N-6)
IC50 [5]: 0.043 µM
EC50 ([1]; hek293): Not Active
EC50 [12]: 0.108 µM
EC50 ([2]; read-out: EC50): 0.13 µM
max activation [7]: 0%
IC50 [8]: 0.1 µM
max activation [9]: 82%
IC50 [13]: > 1 µM
max activation [10]: 74%
max activation [11]: 100%

N=C(N)NCCC[C@@H]1NC(=O)[C@@H](Cc2ccccc2)NC(=O)[C@H](Cc2c[nH]cn2)NC(=O)C2(CCCC2)NC(=O)C[C@@H](C(N)=O)NC(=O)[C@H](Cc2c[nH]c3ccccc23)NC1=O ([Ac5c]H[dF]RWD-NH2; lactam N-6)
Activity [4]: inactive
EC50 ([1]; hek293): Not Active

N=C(N)NCCC[C@@H]1NC(=O)[C@@H](Cc2ccc3ccccc3c2)NC(=O)[C@H](Cc2c[nH]cn2)NC(=O)C2(CCCCC2)NC(=O)C[C@@H](C(N)=O)NC(=O)[C@H](Cc2c[nH]c3ccccc23)NC1=O
IC50 [5]: 0.14 µM
EC50 ([1]; read-out: EC50): 0.17 µM
EC50 [12]: 0.016 µM
IC50 [6]: 0.0039 µM
EC50 ([2]; read-out: EC50): 0.0032 µM
max activation [7]: 100%
IC50 [8]: 0.081 µM
max activation [9]: 60%
EC50 ([3]; read-out: EC50): 0.076 µM
IC50 [13]: > 1 µM
max activation [10]: 67%
max activation [11]: 100%

N=C(N)NCCC[C@@H]1NC(=O)[C@@H](Cc2ccccc2)NC(=O)[C@H](Cc2c[nH]cn2)NC(=O)C2(CCCCC2)NC(=O)C[C@@H](C(N)=O)NC(=O)[C@H](Cc2c[nH]c3ccccc23)NC1=O ([Ac6c]H[dF]RWD-NH2; lactam N-6)
EC50 ([1]; hek293): Not Active

N=C(N)NCCC[C@@H]1NC(=O)[C@@H](Cc2ccccc2)NC(=O)[C@H](Cc2c[nH]cn2)NC(=O)C2(CCCCC2)NC(=O)CC[C@@H](C(N)=O)NC(=O)[C@H](Cc2c[nH]c3ccccc23)NC1=O
IC50 [5]: 0.099 µM
EC50 ([1]; read-out: EC50): 0.0019 µM
EC50 [12]: 0.057 µM
IC50 [6]: 0.074 µM
EC50 ([2]; read-out: EC50): 0.12 µM
max activation [7]: 100%
IC50 [8]: > 1 µM
max activation [9]: 100%
EC50 ([3]; read-out: EC50): 0.0041 µM
IC50 [13]: 0.63 µM
max activation [10]: 100%
max activation [11]: 100%

N=C(N)NCCC[C@@H]1NC(=O)[C@@H](Cc2ccccc2)NC(=O)[C@H](Cc2c[nH]cn2)NC(=O)C2(CCC2)NC(=O)C[C@@H](C(N)=O)NC(=O)[C@H](Cc2c[nH]c3ccccc23)NC1=O
IC50 [5]: > 1 µM
EC50 ([1]; hek293): Not Active
EC50 [12]: 0.06 µM
IC50 [6]: > 1 µM
EC50 ([2]; read-out: EC50): 0.72 µM
max activation [7]: 0%
IC50 [8]: > 1 µM
max activation [9]: 100%
EC50 ([3]; read-out: EC50): 0.276 µM
IC50 [13]: > 1 µM
max activation [10]: 43%
max activation [11]: 100%

N=C(N)NCCC[C@@H]1NC(=O)[C@@H](Cc2ccc3ccccc3c2)NC(=O)[C@H](Cc2c[nH]cn2)NC(=O)C2(CCC2)NC(=O)C[C@@H](C(N)=O)NC(=O)[C@H](Cc2c[nH]c3ccccc23)NC1=O
IC50 [5]: 0.112 µM
EC50 ([1]; read-out: EC50): 0.56 µM
EC50 [12]: 0.048 µM
IC50 [6]: 0.0051 µM
EC50 ([2]; read-out: EC50): 0.27 µM
max activation [7]: 100%
IC50 [8]: 0.32 µM
max activation [9]: 50%
EC50 ([3]; read-out: EC50): 0.0032 µM
IC50 [13]: > 1 µM
max activation [10]: 70%
max activation [11]: 100%

CC1(C)NC(=O)CC[C@@H](C(N)=O)NC(=O)[C@H](Cc2c[nH]c3ccccc23)NC(=O)[C@H](CCCNC(=N)N)NC(=O)[C@@H](Cc2ccc3ccccc3c2)NC(=O)[C@H](Cc2c[nH]cn2)NC1=O ([Aib]H[d2Nal]RWE-NH2; lactam N-6)
EC50 ([1]; hek293): Not Active

CC1(C)NC(=O)C[C@@H](C(N)=O)NC(=O)[C@H](Cc2c[nH]c3ccccc23)NC(=O)[C@H](CCCNC(=N)N)NC(=O)[C@@H](Cc2ccccc2)NC(=O)[C@H](Cc2c[nH]cn2)NC1=O ([Aib]H[dF]RWD-NH2; lactam N-6)
IC50 [5]: 0.601 µM
EC50 ([1]; read-out: EC50): 0.14 µM
EC50 [12]: 0.087 µM
EC50 ([2]; read-out: EC50): 0.0067 µM
max activation [7]: 100%
IC50 [8]: 0.0052 µM
max activation [9]: 100%
EC50 ([3]; read-out: EC50): 0.076 µM
IC50 [13]: > 1 µM
max activation [10]: 100%
max activation [11]: 100%

N=C(N)NCCC[C@@H]1NC(=O)[C@@H](Cc2ccc3ccccc3c2)NC(=O)[C@H](Cc2c[nH]cn2)NC(=O)C2(CCC2)NC(=O)CC[C@@H](C(N)=O)NC(=O)[C@H](Cc2c[nH]c3ccccc23)NC1=O ([Ac4c]H[d2Nal]RWE-NH2; lactam N-6)
EC50 ([1]; hek293): Not Active
EC50 ([2]; hek293): Not Active
EC50 ([3]; hek293): Not Active

CC1(C)NC(=O)C[C@@H](C(N)=O)NC(=O)[C@H](Cc2c[nH]c3ccccc23)NC(=O)[C@H](CCCNC(=N)N)NC(=O)[C@@H](Cc2ccc3ccccc3c2)NC(=O)[C@H](Cc2c[nH]cn2)NC1=O ([Aib]H[d2Nal]RWD-NH2; lactam N-6)
IC50 [5]: 0.18 µM
EC50 ([1]; read-out: EC50): 0.018 µM
EC50 [12]: 0.067 µM
EC50 ([2]; read-out: EC50): 0.0067 µM
max activation [7]: 24%
IC50 [8]: 0.044 µM
max activation [9]: 83%
EC50 ([3]; read-out: EC50): 0.073 µM
IC50 [13]: 0.165 µM
max activation [10]: 100%
max activation [11]: 100%

N=C(N)NCCC[C@@H]1NC(=O)[C@@H](Cc2ccccc2)NC(=O)[C@H](Cc2c[nH]cn2)NC(=O)C2(CCC2)NC(=O)CC[C@@H](C(N)=O)NC(=O)[C@H](Cc2c[nH]c3ccccc23)NC1=O ([Ac4c]H[dF]RWE-NH2; lactam N-6)
IC50 [5]: 0.055 µM
EC50 ([1]; read-out: EC50): 0.002 µM
EC50 [12]: 0.025 µM
IC50 [6]: 0.055 µM
Ratio IC50 [14]: 1
EC50 ([2]; read-out: EC50): 0.15 µM
max activation [7]: 100%
IC50 [8]: > 1 µM
max activation [9]: 100%
Ratio IC50 [15]: 7
IC50 [13]: 0.38 µM
max activation [10]: 75%
max activation [11]: 100%

N=C(N)NCCC[C@@H]1NC(=O)[C@@H](Cc2ccc3ccccc3c2)NC(=O)[C@H](Cc2c[nH]cn2)NC(=O)C2(CCCC2)NC(=O)C[C@@H](C(N)=O)NC(=O)[C@H](Cc2c[nH]c3ccccc23)NC1=O
IC50 [5]: 0.29 µM
EC50 ([1]; read-out: EC50): 0.096 µM
EC50 [12]: 0.014 µM
IC50 [6]: 0.016 µM
EC50 ([2]; read-out: EC50): 0.11 µM
max activation [7]: 100%
IC50 [8]: 0.073 µM
max activation [9]: 42%
EC50 ([3]; read-out: EC50): 0.0019 µM
IC50 [13]: 0.16 µM
max activation [10]: 67%
max activation [11]: 100%
